Reference: patent US20190322632A1, “HRI ACTIVATORS USEFUL FOR THE TREATMENT OF CARDIOMETABOLIC DISEASES” (UNIVERSITAT DE BARCELONA, priority 2016, published 2019)

What was measured:
human Huh-7 hepatocytes = assay: Palmitate-induced triglyceride accumulation in hepatocytes (Oil Red O staining); format: cell-based; details: Huh-7 cells, 24 h, 0.75 mmol/L palmitate plus 10 μmol/L compound; FIG. 5
Method: To examine the effects of HRI activators on triglyceride accumulation and insulin signaling in hepatocytes, the N,N′-diarylurea BTdCPU was used. HRI is a kinase that phosphorylates eIF2α at its Ser 51 residue to execute protein synthesis regulation and thereby HRI activators cause the phosphorylation of eIF2α as previously described (Chen T. et al., ibid). First, the effect of BTdCPU on human Huh-7 hepatocytes exposed to the saturated fatty acid palmitate was explored. Huh-7 cells were incubated for 24 h with BSA (Control, CT), 0.75 mmol/L palmitate (Pal) conjugated with BSA or 0.75 mmol/L palmitate plus 10 μmol/L BTdCPU (Pal+BTdCPU). Then, they were stained with Oil Red O that allows selective detection of neutral lipids (primarily triglyceride and cholesterol esters) within Huh-7 cells.

Akt = assay: Insulin signalling in hepatocytes (insulin-stimulated Akt phosphorylation, immunoblot); format: cell-based, human; details: Huh-7 cells, 24 h, 0.75 mmol/L palmitate plus 10 μmol/L compound, 100 nmol/L insulin last 10 min; FIG. 6
Method: (B). When indicated (+), cells were incubated with 100 nmol/L insulin (I) for the last 10 min. Data are presented as the mean±SD (n=4 per group). ***p<0.001 and *p<0.05 vs. control cells not exposed to insulin. ^###p<0.001 and ^##p<0.01 vs. insulin-stimulated control cells. ^554 \\p<0.001 vs. insulin-stimulated cells incubated with palmitate. Ins: insulin.
Inventors examined the insulin signalling pathway by measuring insulin-stimulated Akt phosphorylation. Huh-7 cells were incubated for 24 h with BSA (Control, CT), 0.75 mmol/L palmitate (Pal) conjugated with BSA, or 0.75 mmol/L palmitate plus 10 μmol/L BTdCPU (Pal+BTdCPU). Immunoblot analyses of total and phosphorylated Akt was carried out.

[1] = test system: mice fed a high-fat diet (HFD); assay: Glucose tolerance test in mice fed a high-fat diet; format: in vivo; details: HFD three weeks, 70 mg kg^−1 day^−1 i.p. daily for the last week, FIG. 7
Excerpt: Data are presented as the mean±SD (n=6 per group). *p<0.05 vs. mice fed a standard diet (CT). #p<0.05 vs. mice fed a HFD. G: glucose.
T2DM is characterized by glucose intolerance, which is contributed to by peripheral (muscle, fat, and liver) insulin resistance as well as islet […] dysfunction (cf. Andrikopoulos S. et al., “Evaluating the glucose tolerance test in mice”, Am. J. Physiol. Endocrinol. Metab., 2008, vol. 295, pp. E1323-32). The glucose tolerance test (GTT) is used in clinical practice and research to identify individuals with impaired glucose tolerance by assessing the disposal of a glucose load. It is important to acknowledge that the GTT is the only means of identifying impaired glucose tolerance, which is considered a prediabetic state (cf. Andrikopoulos S. et al., ibid). The standard presentation of results from GTTs is a description of blood glucose levels over time after the glucose administration. Generally, a time course of absolute glucose levels is presented. When using diabetic or insulin-resistant models (such as the HFD-fed mouse), a time course of absolute glucose levels should still be presented along with a calculation of the AUC above baseline glucose. In this assay, the effect of the BTdCPU compound on glucose tolerance in mice fed a high-fat diet (HFD) was examined. […]

mice fed a HFD = assay: HFD-induced steatosis in mice (ORO and H&E liver staining, hepatic triglyceride levels); format: in vivo; details: HFD three weeks, 70 mg kg^−1 day^−1 i.p. daily for the last week
Excerpt: FIG. 8. (A) Oil Red O and eosin-hematoxylin (H&E) staining of livers of mice fed a standard chow (CT), a HFD for three weeks (HFD) or a HFD for three weeks plus BTdCPU during the last week (HFD+BTdCPU). (B) Liver triglyceride levels. Data are presented as the mean±SD (n=6 per group). *p<0.05 vs. mice fed a standard diet (CT). ^#p<0.05 vs. mice fed a HFD. G: glucose. TG: triglyceride.
Inventors examined whether the treatment with an HRI activator (BTdCPU) prevented the development of steatosis induced by a HFD. Histological analysis of a liver biopsy remains the gold standard for assessing the degree of steatosis. ORO staining and eosin-hematoxylin (H&E) staining of liver sections were performed. Mice fed a standard chow and half of the mice fed the HFD received one daily i.p. administration of DMSO (vehicle) for the last week. The rest of the mice fed the HFD received one daily i.p. administration of BTdCPU (70 mg kg^−1 day^−1) for the last week. […] Finally, hepatic lipids were extracted and hepatic triglyceride levels were assessed by using a commercially available kit (TR0100, Sigma). […] Overall, these findings indicate that HRI activation prevents HFD-induced steatosis.

FGF21 = FGF21 expression in hepatocytes (quantitative real-time RT-PCR); format: cell-based, human; details: Huh-7 hepatocytes, 24 h, 10 μM; FIG. 9
Method: Human Huh-7 hepatocytes were incubated for 24 h in the absence (Control, CT) or in the presence of compounds (10 μM). Assessment by quantitative real-time RT-PCR of FGF21. Data are presented as the mean±SD (n=4 per group). ***p<0.001 and **p<0.01 vs CT. ^###p<0.001, ^##p<0.01 and ^#p<0.05 vs BTCtFPU. ^††p<0.01 and ^†p<0.05 vs BTdCPU. BTCtFPU=1-(benzo[d][1,2,3]thiadiazol-6-yl)-3-(4-chloro-3-(trifluoromethyl)phenyl)urea (compound (3) in Chen T. et al., ibid.).

For `O=C(Nc1ccc(Cl)c(Cl)c1)Nc1ccc2nnsc2c1` [BTdCPU, 1-(benzo[d][1,2,3]thiadiazol-6-yl)-3-(3,4-dichlorophenyl)urea], the “palmitate-induced triglyceride accumulation (Oil Red O staining)” value (human Huh-7 hepatocytes) was “accumulation was prevented”, the “insulin-stimulated Akt phosphorylation” value (Akt) was “partially restored the reduction in insulin-stimulated Akt phosphorylation caused by palmitate” and the “glucose tolerance test AUC above baseline glucose” value [1] was “prevented the increase in the AUC above baseline glucose”. For the same compound, the “hepatic steatosis (ORO and H&E staining)” value (mice fed a HFD; FIG. 8A) was “hepatic steatosis was reversed”, the hepatic triglyceride levels (mice fed a HFD; FIG. 8B) was “increase was completely blunted” and the “FGF21 expression compared with BTCtFPU” value (FGF21) was “significant higher increase than compound BTCtFPU”.
